Among the data in the NIST ThermoML archive (doi:10.1016/j.fluid.2007.06.017) are Normal melting temperature values, retold here.

SMILES strings stand for the structures. ± gives the expanded uncertainty stated by the source.

For this data set the following is noted: Crystal; DTA.

For `CCCCCCCCCCCCCC[P+](CCCCCC)(CCCCCC)CCCCCC.O=S(=O)([N-]S(=O)(=O)C(F)(F)F)C(F)(F)F`, the Normal melting temperature was 33.00 ± 1 °C.
